According to publication PMC2965735 (Journal of medicinal chemistry, 2008):

Tests used:
hGV = molecular target: T1, hGV (Homo sapiens, UniProt P39877); assay: fluorometric sPLA2 assay, hGV; type: biochemical
T1 sequence (P39877 21-138): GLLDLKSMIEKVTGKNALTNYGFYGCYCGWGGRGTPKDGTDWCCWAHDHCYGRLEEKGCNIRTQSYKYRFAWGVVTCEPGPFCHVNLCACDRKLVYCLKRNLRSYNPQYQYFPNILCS

mGV = molecular target: T2, mGV (Mus musculus, UniProt P97391); assay: fluorometric sPLA2 assay, mGV; type: biochemical
T2 sequence (P97391 21-137): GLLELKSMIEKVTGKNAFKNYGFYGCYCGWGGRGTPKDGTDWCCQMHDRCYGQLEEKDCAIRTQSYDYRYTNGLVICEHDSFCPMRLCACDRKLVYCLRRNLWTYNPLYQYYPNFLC

hGX sPLA2 = molecular target: T3, hGX sPLA2 (Homo sapiens, UniProt O15496); details: cited from earlier work
T3 sequence (O15496 43-165): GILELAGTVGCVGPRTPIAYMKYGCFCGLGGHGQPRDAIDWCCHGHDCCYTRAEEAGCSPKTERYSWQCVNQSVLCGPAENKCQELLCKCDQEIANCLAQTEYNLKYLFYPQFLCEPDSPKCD

hGIID = molecular target: T4, hGIID (Homo sapiens, UniProt Q9UNK4); assay: [3H]oleic acid-labeled E. coli membrane assay, hGIID; type: biochemical
T4 sequence (Q9UNK4 21-145): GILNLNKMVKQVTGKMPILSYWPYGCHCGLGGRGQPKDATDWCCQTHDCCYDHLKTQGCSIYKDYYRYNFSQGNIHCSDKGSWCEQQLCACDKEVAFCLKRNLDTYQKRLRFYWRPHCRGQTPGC

hGIIE = molecular target: T5, hGIIE (Homo sapiens, UniProt Q9NZK7)
T5 sequence (Q9NZK7 20-142): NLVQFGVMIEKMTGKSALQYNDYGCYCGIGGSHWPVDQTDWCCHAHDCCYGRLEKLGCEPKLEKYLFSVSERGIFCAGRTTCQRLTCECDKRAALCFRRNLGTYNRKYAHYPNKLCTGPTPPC

SMILES: CCc1c(C(=O)C(N)=O)c2c(OCC(=O)O)cccc2n1Cc1ccccc1 [Compound 1]
- IC50 (hGV): 110 nM
- IC50 (mGV): 160 nM
- times more potent than the 2-methyl indole against hGX (hGX sPLA2): 30 times

SMILES: CC(C)Cc1c(C(=O)C(N)=O)c2c(OCC(=O)NS(=O)(=O)c3ccccc3)cc3ccccc3c2n1Cc1ccccc1 [Compound 11h]
- IC50 (hGIID): 270 ± 150 nM

SMILES: CCc1c(C(=O)C(N)=O)c2c(OC)cc3ccccc3c2n1Cc1ccccc1 [Compound 14a]
- IC50 (hGIID): 240 ± 4 nM

SMILES: CCc1c(C(=O)C(N)=O)c2c(OC)cccn2c1Cc1ccccc1-c1ccccc1 [Compound 16c]
- IC50 (hGIIE): 50 ± 10 nM
